{"source": "ChEMBL document CHEMBL5360558", "about": "“Molecular design, synthesis and anticancer activity of new thiopyrano[2,3-d]thiazoles based on 5-hydroxy-1,4-naphthoquinone (juglone)” (Eur J Med Chem, 2023)", "key": {"[1]": {"test_system": "EKVX", "test": "Growth inhibition against human EKVX cells assessed as total growth inhibitory concentration incubated for 48 hrs by sulforhodamine B spectrophotometric assay", "format": "functional"}, "[2]": {"test_system": "LOX IMVI", "test": "Growth inhibition against human LOX IMVI cells assessed as total growth inhibitory concentration incubated for 48 hrs by sulforhodamine B spectrophotometric assay", "format": "functional"}, "[3]": {"test_system": "ACHN", "test": "Growth inhibition against human ACHN cells assessed as lethal concentration incubated for 48 hrs by sulforhodamine B spectrophotometric assay", "format": "functional", "details": "read-out: LC50 (the source's name)"}, "[4]": {"test_system": "HT-29", "test": "Growth inhibition against human HT-29 cells assessed as total growth inhibitory concentration incubated for 48 hrs by sulforhodamine B spectrophotometric assay", "format": "functional"}, "[5]": {"test_system": "MCF7", "test": "Cytotoxicity against human MCF7 cells assessed as cell growth inhibition incubated for 72 hrs by MTT assay", "format": "functional, cell-based", "details": "MCF7, 72 h"}, "[6]": {"test_system": "UO-31", "test": "Growth inhibition against human UO-31 cells assessed as lethal concentration incubated for 48 hrs by sulforhodamine B spectrophotometric assay", "format": "functional", "details": "read-out: LC50 (the source's name)"}, "[7]": {"test_system": "CAKI-1", "test": "Growth inhibition of human CAKI-1 cells incubated for 48 hrs by sulforhodamine B spectrophotometric assay", "format": "functional"}, "[8]": {"test_system": "KB 3-1", "test": "Induction of cell morphological changes in human KB 3-1 cells at 1 uM incubated for 24 hrs by Hoechst-33342 staining based fluorescent microscopy analysis", "format": "functional"}, "[9]": {"test_system": "HOP-62", "test": "Growth inhibition against human HOP-62 cells assessed as total growth inhibitory concentration incubated for 48 hrs by sulforhodamine B spectrophotometric assay", "format": "functional"}, "[10]": {"test_system": "NCI-H322M", "test": "Anticancer activity against human NCI-H322M cells assessed as cell growth at 10 uM incubated for 48 hrs by sulforhodamine B assay", "format": "functional", "details": "read-out: Activity"}, "[11]": {"test_system": "MCF7", "test": "Growth inhibition of human MCF7 cells incubated for 48 hrs by sulforhodamine B spectrophotometric assay", "format": "functional"}, "[12]": {"test": "Antileukemic activity against human CLL cell assessed as cell growth inhibition incubated for 72 hrs by MTT assay", "format": "functional, cell-based"}, "[13]": {"test_system": "HOP-92", "test": "Growth inhibition against human HOP-92 cells assessed as total growth inhibitory concentration incubated for 48 hrs by sulforhodamine B spectrophotometric assay", "format": "functional"}, "[14]": {"test_system": "RPMI-8226", "test": "Growth inhibition against human RPMI-8226 cells assessed as total growth inhibitory concentration incubated for 48 hrs by sulforhodamine B spectrophotometric assay", "format": "functional"}, "[15]": {"test_system": "OVCAR-3", "test": "Growth inhibition against human OVCAR-3 cells assessed as lethal concentration incubated for 48 hrs by sulforhodamine B spectrophotometric assay", "format": "functional", "details": "read-out: LC50 (the source's name)"}, "[16]": {"test_system": "Jurkat", "test": "Induction of apoptosis in human Jurkat cells assessed as DNA damage by DNA laddering assay", "format": "functional, cell-based"}, "[17]": {"test_system": "OVCAR-8", "test": "Growth inhibition against human OVCAR-8 cells assessed as total growth inhibitory concentration incubated for 48 hrs by sulforhodamine B spectrophotometric assay", "format": "functional"}, "[18]": {"test_system": "SK-MEL-2", "test": "Growth inhibition against human SK-MEL-2 cells assessed as total growth inhibitory concentration incubated for 48 hrs by sulforhodamine B spectrophotometric assay", "format": "functional"}, "[19]": {"test_system": "Hs-578T", "test": "Growth inhibition against human Hs-578T cells assessed as total growth inhibitory concentration incubated for 48 hrs by sulforhodamine B spectrophotometric assay", "format": "functional"}, "[20]": {"test_system": "MDA-MB-435", "test": "Growth inhibition against human MDA-MB-435 cells assessed as lethal concentration incubated for 48 hrs by sulforhodamine B spectrophotometric assay", "format": "functional", "details": "read-out: LC50 (the source's name)"}, "[21]": {"test_system": "CCRF-CEM", "test": "Growth inhibition against human CCRF-CEM cells assessed as lethal concentration incubated for 48 hrs by sulforhodamine B spectrophotometric assay", "format": "functional", "details": "read-out: LC50 (the source's name)"}, "[22]": {"test_system": "HCT-116", "test": "Growth inhibition against human HCT-116 cells assessed as total growth inhibitory concentration incubated for 48 hrs by sulforhodamine B spectrophotometric assay", "format": "functional"}, "[23]": {"test_system": "SW-620", "test": "Growth inhibition of human SW620 cells incubated for 48 hrs by sulforhodamine B spectrophotometric assay", "format": "functional"}, "[24]": {"test_system": "UACC-62", "test": "Growth inhibition against human UACC-62 cells assessed as total growth inhibitory concentration incubated for 48 hrs by sulforhodamine B spectrophotometric assay", "format": "functional"}, "[25]": {"test_system": "OVCAR-8", "test": "Growth inhibition against human OVCAR-8 cells assessed as lethal concentration incubated for 48 hrs by sulforhodamine B spectrophotometric assay", "format": "functional", "details": "read-out: LC50 (the source's name)"}, "[26]": {"test_system": "HCT-15", "test": "Growth inhibition of human HCT-15 cells incubated for 48 hrs by sulforhodamine B spectrophotometric assay", "format": "functional"}, "[27]": {"test_system": "MDA-MB-231", "test": "Growth inhibition of human MDA-MB-231 cells incubated for 48 hrs by sulforhodamine B spectrophotometric assay", "format": "functional"}}, "note": "Active and inactive are the calls of the source. No cut-off for these calls is given here."}
{"smiles": "O=C1C2=C(C(=O)c3c(O)cccc31)C(c1ccco1)c1sc(=O)[nH]c1S2", "note": "(configuration not stated)", "values": [{"measurement": "TGI", "setting": "[1]", "result": 19.4, "unit": "µM"}, {"measurement": "TGI", "setting": "[2]", "result": 7.55, "unit": "µM"}, {"measurement": "CC50", "setting": "[3]", "result": 40.1, "unit": "µM"}, {"measurement": "TGI", "setting": "[4]", "result": 9.25, "unit": "µM"}, {"measurement": "IC50", "setting": "[5]", "result": 3.08, "unit": "µM"}, {"measurement": "CC50", "setting": "[6]", "result": 36.7, "unit": "µM"}, {"measurement": "GI50", "setting": "[7]", "result": 3.29, "unit": "µM"}, {"measurement": "Activity", "setting": "[8]", "result": "Active"}, {"measurement": "TGI", "setting": "[9]", "result": 3.74, "unit": "µM"}, {"measurement": "growth at 10 µM", "setting": "[10]", "result": -97.7, "unit": "%"}, {"measurement": "GI50", "setting": "[11]", "result": 1.39, "unit": "µM"}, {"measurement": "IC50", "setting": "[12]", "result": "> 50", "unit": "µM"}, {"measurement": "TGI", "setting": "[13]", "result": 8.08, "unit": "µM"}, {"measurement": "TGI", "setting": "[14]", "result": 9.83, "unit": "µM"}, {"measurement": "CC50", "setting": "[15]", "result": "> 100", "unit": "µM"}, {"measurement": "Activity", "setting": "[16]", "result": "Active"}, {"measurement": "TGI", "setting": "[17]", "result": 8.97, "unit": "µM"}, {"measurement": "TGI", "setting": "[18]", "result": 16.4, "unit": "µM"}, {"measurement": "TGI", "setting": "[19]", "result": 6.56, "unit": "µM"}, {"measurement": "CC50", "setting": "[20]", "result": 5.26, "unit": "µM"}, {"measurement": "CC50", "setting": "[21]", "result": "> 100", "unit": "µM"}, {"measurement": "TGI", "setting": "[22]", "result": "> 100", "unit": "µM"}, {"measurement": "GI50", "setting": "[23]", "result": 3.28, "unit": "µM"}, {"measurement": "TGI", "setting": "[24]", "result": 3.43, "unit": "µM"}, {"measurement": "CC50", "setting": "[25]", "result": 36.2, "unit": "µM"}, {"measurement": "GI50", "setting": "[26]", "result": 1.75, "unit": "µM"}, {"measurement": "GI50", "setting": "[27]", "result": 2.73, "unit": "µM"}]}
